Data as given in ChEMBL document CHEMBL4052581, “Expanding the Cancer Arsenal with Targeted Therapies: Disarmament of the Antiapoptotic Bcl-2 Proteins by Small Molecules” (J Med Chem, 2017).
Each block holds one compound with its values, some of them ahead of it.

Columns and labels:
[1] = Selectivity ratio of IC50 for human Bcl-2 to IC50 for mouse Mcl-1
[2] = molecular target: T1, Induced myeloid leukemia cell differentiation protein Mcl-1 (Homo sapiens, UniProt Q07820); test: Binding affinity to Mcl-1 (unknown origin) by TR-FRET assay
T1 sequence (Q07820 whole entry): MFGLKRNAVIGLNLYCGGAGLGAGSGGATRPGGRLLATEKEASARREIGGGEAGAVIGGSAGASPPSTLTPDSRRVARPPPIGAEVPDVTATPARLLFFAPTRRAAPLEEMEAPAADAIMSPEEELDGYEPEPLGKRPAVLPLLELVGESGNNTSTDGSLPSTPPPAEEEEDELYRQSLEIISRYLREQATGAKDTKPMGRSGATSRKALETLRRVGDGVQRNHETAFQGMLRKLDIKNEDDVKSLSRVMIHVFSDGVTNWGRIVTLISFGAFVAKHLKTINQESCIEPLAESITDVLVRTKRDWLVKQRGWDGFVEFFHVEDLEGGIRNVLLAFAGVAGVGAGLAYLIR

Bcl-2-related protein A1 = molecular target: T2, Bcl-2-related protein A1 (Homo sapiens, UniProt Q16548); test: Binding affinity to Bcl2A1 (unknown origin)
T2 sequence (Q16548 whole entry): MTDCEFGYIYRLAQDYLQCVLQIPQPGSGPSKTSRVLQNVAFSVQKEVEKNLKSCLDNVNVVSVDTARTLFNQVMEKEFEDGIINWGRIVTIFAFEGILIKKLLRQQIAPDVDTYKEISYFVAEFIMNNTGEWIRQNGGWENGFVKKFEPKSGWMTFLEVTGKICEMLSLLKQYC

Bcl-2-like protein 1 [3] = molecular target: T3, Bcl-2-like protein 1 (Homo sapiens, UniProt Q07817); test: Inhibition of FITC-labeled Bak-BH3 peptide binding to Bcl-xL (unknown origin) by fluorescence polarization assay
T3 sequence (Q07817 whole entry): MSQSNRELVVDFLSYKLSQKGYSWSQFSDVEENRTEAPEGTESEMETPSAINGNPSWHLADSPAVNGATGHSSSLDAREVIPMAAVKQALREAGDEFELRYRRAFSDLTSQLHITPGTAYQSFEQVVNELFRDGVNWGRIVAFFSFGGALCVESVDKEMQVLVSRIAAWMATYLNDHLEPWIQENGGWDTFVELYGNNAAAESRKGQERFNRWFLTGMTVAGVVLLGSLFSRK

[4] = molecular target: T1, Induced myeloid leukemia cell differentiation protein Mcl-1; test: Inhibition of FITC-labeled Bak-BH3 peptide binding to Mcl-1 (unknown origin) by fluorescence polarization assay
[5] = molecular target: T1, Induced myeloid leukemia cell differentiation protein Mcl-1; test: Inhibition of FITC-BID BH3 peptide binding to recombinant GST-tagged N-terminal/C-terminal truncated Mcl-1 (unknown origin) expressed in Escherichia coli BL21 (DE3) after 5 mins by fluorescence polarization assay
Bcl-2-like protein 1 [6] = molecular target: T3, Bcl-2-like protein 1; test: Inhibition of FITC-BID BH3 peptide binding to recombinant GST-tagged C-terminal truncated Bcl-xL (unknown origin) expressed in Escherichia coli BL21 (DE3) after 5 mins by fluorescence polarization assay
Bcl-2-like protein 1 [7] = molecular target: T3, Bcl-2-like protein 1; test: Inhibition of Bak BH3 peptide binding to GST-tagged human Bcl-xL after 3 hrs by Western blotting-based GST pull-down assay
[8] = molecular target: T1, Induced myeloid leukemia cell differentiation protein Mcl-1; test: Inhibition of Bim BH3 peptide binding to GST-tagged human Mcl-1 after 3 hrs by Western blotting-based GST pull-down assay
[9] = molecular target: T1, Induced myeloid leukemia cell differentiation protein Mcl-1; test: Inhibition of FITC-labeled Bim BH3 binding to GST-tagged Mcl-1 (unknown origin) preincubated for 2 mins followed by FITC-Bim-BH3 addition measured after 10 mins by fluorescence polarization assay
[10] = molecular target: T4, Apoptosis regulator Bcl-2 (Homo sapiens, UniProt P10415); test: Inhibition of Bcl-2 (unknown origin) by fluorescence polarization assay
T4 sequence (P10415 whole entry): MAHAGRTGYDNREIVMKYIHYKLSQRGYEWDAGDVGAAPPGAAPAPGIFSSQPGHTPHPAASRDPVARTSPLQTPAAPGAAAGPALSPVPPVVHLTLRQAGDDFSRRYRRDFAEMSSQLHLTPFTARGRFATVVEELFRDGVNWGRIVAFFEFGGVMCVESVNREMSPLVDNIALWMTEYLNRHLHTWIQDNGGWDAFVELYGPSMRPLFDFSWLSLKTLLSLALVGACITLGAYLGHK

Bcl-2-like protein 1 [11] = molecular target: T3, Bcl-2-like protein 1; test: Inhibition of Bcl-xL (unknown origin) by fluorescence polarization assay
Homo sapiens [12] = organism: Homo sapiens; test: Selectivity ratio of compound effect for Bcl-2 (unknown origin) to compound effect for Mcl-1 (unknown origin)
Homo sapiens [13] = organism: Homo sapiens; test: Selectivity ratio of compound effect for Bcl-xL (unknown origin) to compound effect for Mcl-1 (unknown origin)
[14] = molecular target: T4, Apoptosis regulator Bcl-2; test: Inhibition of FAM-Bid binding to Bcl-2 (unknown origin) after 30 mins by fluorescence polarization assay
[15] = molecular target: T1, Induced myeloid leukemia cell differentiation protein Mcl-1; test: Inhibition of FAM-Bid binding to Mcl-1 (unknown origin) after 30 mins by fluorescence polarization assay

Compound: O=C(c1ccccc1O)c1[nH]c(Cl)c(Cl)c1-n1c(C(=O)c2ccccc2O)cc(Cl)c1Cl
Ratio IC50 [1]: > 8

Ki [2]: > 444 nM
Compound: CC1(C)CCC(CN2CCN(c3ccc(C(=O)NS(=O)(=O)c4ccc(NCC5CCOCC5)c([N+](=O)[O-])c4)c(Oc4cnc5[nH]ccc5c4)c3)CC2)=C(c2ccc(Cl)cc2)C1 [VENETOCLAX]

Ki (Bcl-2-related protein A1): > 20000 nM
Compound: CN(C)CC[C@H](CSc1ccccc1)Nc1ccc(S(=O)(=O)NC(=O)c2ccc(N3CCN(Cc4ccccc4-c4ccc(Cl)cc4)CC3)cc2)cc1[N+](=O)[O-] [ABT 737]

IC50 (Bcl-2-like protein 1 [3]): 394 nM
IC50 [4]: 10000 nM
Compound: CC(C)Oc1cc(C(=O)Nc2ccc(C(=O)Nc3ccc(C(=O)O)cc3OC(C)C)nc2OC(C)C)ccc1N

IC50 [5]: 4800 nM
IC50 (Bcl-2-like protein 1 [6]): > 50000 nM
Compound: Cc1cs/c(=N\C2CCCCC2)n1/N=C/c1cc(O)c(O)c(O)c1

IC50 (Bcl-2-like protein 1 [7]): 1500 nM
IC50 [8]: 4900 nM
Compound: CC(C)Cc1cc(-c2ccc(-c3ccc(CCC(=O)O)cc3CC(C)C)cc2Cc2ccccc2)ccc1OCC(=O)O

IC50 [9]: 25 nM
Compound: CC1=C(C2=C(C)C(=O)c3c(cc(O)c(O)c3Cc3ccccc3)C2=O)C(=O)c2cc(O)c(O)c(Cc3ccccc3)c2C1=O

Ki [10]: < 1 nM
Ki (Bcl-2-like protein 1 [11]): < 1 nM
Selectivity ratio (Homo sapiens [12]): > 1000
Selectivity ratio (Homo sapiens [13]): > 1000
Compound: Cc1c(S(C)(=O)=O)c(-c2cc(F)cc(N3CCN(c4ccc(NS(=O)(=O)c5ccc(N[C@H](CCN6CCC(O)CC6)CSc6ccccc6)c(S(=O)(=O)C(F)(F)F)c5)cc4)CC3)c2)c(-c2ccc(Cl)cc2)n1C(C)C

Kd [14]: 310 nM
Kd [15]: 58 nM
Compound: N#CC1=C2C(=NC1=O)c1cccc3c(N4CCSCC4)ccc2c13
